Structures are written as SMILES. Where two headings read alike, the source gives them in different places. Bounds are passed on as bounds.

In general, inhibition refers to the change of the read-out against control, counted positive when it falls. As a reminder, the IC50 is the concentration that inhibits the measured activity by half.

Common to all, as to type: biochemical
Test [1] concerns the target T1, human DGAT2 (Homo sapiens, UniProt Q96PD7).
T1 construct: made in house; host or cells: sf9 insect cells
T1 sequence (Q96PD7 1-388): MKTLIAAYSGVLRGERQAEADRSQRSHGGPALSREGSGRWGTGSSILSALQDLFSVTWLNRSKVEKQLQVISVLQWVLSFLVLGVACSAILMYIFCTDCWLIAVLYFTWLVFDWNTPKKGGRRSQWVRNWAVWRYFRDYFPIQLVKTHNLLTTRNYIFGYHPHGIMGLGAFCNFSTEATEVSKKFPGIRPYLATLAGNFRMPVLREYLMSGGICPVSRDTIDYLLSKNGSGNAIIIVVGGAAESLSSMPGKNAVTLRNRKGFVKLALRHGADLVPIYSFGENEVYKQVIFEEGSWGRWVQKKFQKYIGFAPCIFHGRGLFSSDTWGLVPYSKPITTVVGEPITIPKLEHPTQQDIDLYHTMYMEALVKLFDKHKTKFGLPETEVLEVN
Nature of the test: DGAT enzyme inhibition test, hDGAT2 enzyme from sf9 insect cells (DGAT2 selectivity). In short, it runs like this:
(§1)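 Microsomes (100–200 μg) from sf9 cells overexpressing the human enzyme were incubated 10 min at 25 °C with compound in 175 mM Tris-HCl pH 8.0, 100 mM MgCl2, BSA, 30 μM [14C]palmitoyl-CoA and 200 μM 1,2-dioleoylglycerol. Extracted [14C]triacylglycerol was counted by LSC. Inhibition was calculated from treated, untreated and no-enzyme counts.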

Test [2] addresses T2, DGAT-1 (rat liver) (Rattus norvegicus, UniProt Q9ERM3).
T2 construct: microsomal protein isolated from rat; from tissue; host or cells: rat liver microsomes
T2 sequence (Q9ERM3 1-498): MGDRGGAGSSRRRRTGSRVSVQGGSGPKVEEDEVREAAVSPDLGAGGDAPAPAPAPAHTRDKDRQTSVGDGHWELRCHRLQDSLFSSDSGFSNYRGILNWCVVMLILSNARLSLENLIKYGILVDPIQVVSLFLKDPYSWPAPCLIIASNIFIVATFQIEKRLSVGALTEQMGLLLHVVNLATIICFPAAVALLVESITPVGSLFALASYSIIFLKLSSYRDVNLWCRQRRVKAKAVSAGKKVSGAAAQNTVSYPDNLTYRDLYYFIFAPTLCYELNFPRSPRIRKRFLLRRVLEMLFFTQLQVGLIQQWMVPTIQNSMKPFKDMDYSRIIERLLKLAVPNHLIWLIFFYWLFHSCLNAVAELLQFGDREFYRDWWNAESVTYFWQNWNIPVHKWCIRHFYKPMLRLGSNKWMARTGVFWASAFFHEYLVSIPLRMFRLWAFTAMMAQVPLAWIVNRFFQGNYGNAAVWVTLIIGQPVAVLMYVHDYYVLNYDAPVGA
The test is described as follows: DGAT enzyme inhibition test, rat liver-derived DGAT enzyme. The settings on record: rat liver microsomal protein. The source says:
To investigate inhibitory effect of the compounds of Examples 1-33 against DGAT enzyme activity, DGAT enzyme inhibition and DGAT2 selectivity were investigated using zymogen including:
3) rat liver-derived DGAT enzyme.
To be specific, for the purpose of measuring human-derived DGAT enzyme inhibitory activity, using the zymogen, including enzymes derived from insect cell overexpressing human DGAT1 and DGAT2 (‘sf9’), microsomal protein isolated from human duodenal adenocarcinoma (‘Hutu 80’), and microsomal protein isolated from rat, and according to Coleman et al., (Methods Enzymol., 98-103, 1992), and substrate including 1,2-diacylglycerol(Sigma, D0138) and [^14C]palmitoyl-CoA (Amersham, CFA583), the amount of radiation of [^14C]triacylglycerol produced after enzymatic reaction was measured.
To be more specific, to the reaction solution containing 175 mM Tris-HCl (pH 8.0), 20 μl bovine serum albumin (10 mg/ml), 100 mM magnesium chloride, 30 μM [^14C]palmitoyl CoA (0.02 μCi, Amersham) and 200 μM 1,2-dioleoylglycerol, reagent dissolved in dimethylsulfoxide (10.0 μl) was added. After introducing 100 to 200 μg isolated microsomal protein and allowing the same to react at 25° C. for 10 min, the reaction was stopped by adding 1.5 ml stop solution (2-propanol:heptane:water=80:20:2, v:v:v). To isolate the product of the reaction (i.e., [^14C]triacylglycerol), 1 ml heptane and 0.5 ml distilled water were added and then decocted. After taking 1 ml supernatant, 2 ml alkaline ethanol solution (ethanol:0.5 N sodium hydroxide:water=50:10:40, v:v:v) were added and then decocted. After taking 0.65 ml supernatant from the decoction, the amount of radiation was measured with liquid scintillation counter (LSC). The DGAT inhibitory activity was calculated with Mathematical Expression 1 below:
T denotes cpm of experimental group in which the enzymatic reaction solution was treated with the sample,
C denotes cpm of control group in which the enzymatic reaction solution was not treated with the sample, and
B denotes cpm of control group treated with the sample without zymogen.
On the technique in general: Microsomes from liver hold many membrane-bound enzymes, among them those of drug oxidation.

Test [3] deals with T3, human DGAT1 (Homo sapiens, UniProt O75907).
T3 construct: made in house; host or cells: sf9 insect cells
T3 sequence (O75907 1-488): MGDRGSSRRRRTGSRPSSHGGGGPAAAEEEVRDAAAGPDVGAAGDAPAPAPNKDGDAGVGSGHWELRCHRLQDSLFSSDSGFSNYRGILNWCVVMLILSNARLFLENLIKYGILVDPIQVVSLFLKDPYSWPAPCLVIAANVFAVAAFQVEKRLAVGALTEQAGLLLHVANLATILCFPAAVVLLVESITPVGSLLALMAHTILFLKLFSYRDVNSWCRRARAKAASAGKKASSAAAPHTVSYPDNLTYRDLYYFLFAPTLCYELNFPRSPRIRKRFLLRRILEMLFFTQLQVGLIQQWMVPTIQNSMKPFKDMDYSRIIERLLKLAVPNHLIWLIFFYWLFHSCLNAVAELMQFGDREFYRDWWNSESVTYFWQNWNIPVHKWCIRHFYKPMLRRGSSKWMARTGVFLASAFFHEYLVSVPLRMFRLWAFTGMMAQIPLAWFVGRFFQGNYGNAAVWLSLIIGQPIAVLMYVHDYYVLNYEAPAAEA
The test is described as follows: DGAT enzyme inhibition test, hDGAT1 enzyme from sf9 insect cells. As to conditions: enzyme from sf9 cells overexpressing hDGAT1; read-out: hDGAT-1 (sf9) IC50. The essentials:
as §1

Setting [4] is: 10 μM, enzyme from sf9 cells overexpressing hDGAT2, read-out: hDGAT-2 (sf9) inhibition rate(%)at 10 μM.
The mark [5] stands for this setting: concentration of 10 μM, read-out: hDGAT2 inhibition.

Turning to `CC(=O)n1cc(/C=C/C(=O)N(NC(=O)c2ccccc2)C(C)C)c2ccccc21` [Example 30, (E)-N′-(3-(1-acetyl-1H-indol-3-yl)acryloyl)-N′-isopropylbenzohydrazide], in test [1] (setting [4]), the inhibition at 10 µM is below 0%. For the same compound, the IC50 came to 22.5 µM in test [2] and 65.3 µM in test [3].

Turning to `CC(C)N(NC(=O)c1ccccc1)C(=O)/C=C/c1cn(C(=O)C(C)(C)C)c2ccccc12` [Example 31, (E)-N′-isopropyl-N′-(3-(1-pivaloyl-1H-indol-3-yl)acryloyl)benzohydrazide], the figures for the inhibition at 10 µM in test [1] (setting [4]) and in test [1] (setting [5]) were 4.4% and below 11%, respectively. In addition, the IC50 in test [2] was 3.4 µM; in test [3] it was 9.3 µM.

For the compound `CC(C)N(NC(=O)c1ccccc1)C(=O)/C=C/c1cn(C(=O)c2ccccc2)c2ccccc12` [Example 32, (E)-N′-(3-(1-benzoyl-1H-indol-3-yl)acryloyl)-N′-isopropylbenzohydrazide], the inhibition at 10 µM was 11% in test [1] (setting [4]) and below 11% in test [1] (setting [5]). In addition, the IC50 in test [2] worked out at 0.7 µM; in test [3] it was 5.7 µM.

Regarding `CC(C)N(NC(=O)c1ccccc1)C(=O)/C=C/c1cn(C(=O)CC(C)(C)C)c2ccccc12` [Example 33, (E)-N′-(3-(1-(3,3-dimethylbutanoyl)-1H-indol-3-yl)acryloyl)-N′-isopropylbenzohydrazide], the inhibition at 10 µM is below 0% in test [1] (setting [4]) and below 11% in test [1] (setting [5]). Besides, the IC50 in test [2] came out at 1.4 µM; in test [3], 5.3 µM.

The values are drawn from patent US8906952B2, “Indole derivative or pharmaceutically acceptable salt thereof, preparation method thereof, and pharmaceutical composition for preventing or treating metabolic diseases containing same as active ingredient” (Korea Research Institute of Bioscience and Biotechnology, priority 2011, dated 2014).
